We go through two compounds from PMC8230474, “Synthesis of Novel Acyl Derivatives of 3-(4,5,6,7-Tetrabromo-1H-benzimidazol-1-yl)propan-1-ols—Intracellular TBBi-Based CK2 Inhibitors with Proapoptotic Properties” (International Journal of Molecular Sciences, 2021).

One assay addresses PIM1 (Homo sapiens, UniProt P11309). Kind of assay: Radiometric (P81 filter isotopic) kinase assay, PIM1. Format: biochemical. To be noted: read-out: Residual Activity of the Enzyme PIM1; for remaining activity at 5 µM: 5 µM compound; for remaining activity at 10 µM: 10 µM compound.
The test system of assay [1] is protein kinase CK2 in MCF-7 cells. In words: Intracellular inhibition of CK2, Western blot of p-Ser529 p65 and p-Ser129 Akt1, MCF-7. The class given is cell-based, human. The text has this: We observed an inhibition of CK2 in both cell lines; however, the lower efficiency of CK2 inhibition was detected in MCF-7 considering the extent of Akt1 phosphorylation. The relative level of the phosphorylation of the tested proteins in MDA-MB-231 cells was in the range of 0.32 to 0.80 for p-Ser529 p65 and 0.41 to 0.73 for p-Ser129 Akt1, whereas in MCF-7 cells it was in the range of 0.33 to 0.78 for p-Ser529 p65 and 0.82 to 1.23 for p-Ser129 Akt1, respectively. The lowest phosphorylation levels of the tested proteins were detected in MDA-MB-231 cells for compound 6b with the relative level of 0.41 for Ser129 Akt1 as well as for compound 6c with the relative level of 0.32 for p-Ser529 p65. Among the tested proteins, the lowest extent of phosphorylation in MCF-7 cells was detected for 6b with the relative level of 0.33 for p-Ser529 p65, and for 6a with the relative level of 0.82 for Ser129 Akt1.
Considering an inefficient inhibition of CK2 in MCF-7, we evaluated an inhibition of CK2 in this cell line after 72 h. […] The relative levels were in the range of 0.17 to 0.8 for p-Ser529 p65 and 0.19 to 0.79 for p-Ser129 Akt1.
The MCF-7 cells growing exponentially were seeded at 4.8 × 10^5 cells in 6-cm-diameter plates. Subsequently, compounds were added in a final concentration of 0.5% DMSO. After incubation, floating cells were collected and cell monolayer was washed three times in ice-cold PBS and the cells were scraped, combined with floating cells and lysed in RIPA buffer consisting of 50 mM Tris-HCl (pH 7.4), 1% NP-40, 0.5% sodium deoxycholate, 0.1% SDS, 150 mM NaCl, 2 mM EDTA, 50 mM NaF, 0.2 mM sodium orthovanadate, and protease inhibitors cocktail. Subsequently, cells were sonicated (three times for 15 s), centrifuged at 20,000× g for 15 min at 4 °C, and the supernatants were collected and stored at −80 °C. The protein concentration was determined using Bradford assay. Then, supernatants were incubated with the Laemmli buffer for 5 min at 98 °C. Equal amounts of total protein (10 to 20 μg) were analyzed by SDS-PAGE, and subsequently, Western blotting was performed using primary antibodies in blocking buffer containing either 3% BSA (bovine serum albumin) or 3% milk in TBS-T (Tris-buffered saline (10 mM Tris-HCl (pH 8), 150 mM NaCl) containing 0.1% Tween 20 or 0.2% Triton X-100) for 1 h. After overnight incubation at 4 °C with the primary antibodies, the membranes were washed with TBS-T and probed with the respective secondary antibodies. The ECL substrate was used for detection and immunoblots were scanned using G Box Chemi (Syngene, Cambridge, UK) with GeneSys software (Syngene, Cambridge, UK) or were developed with the use of X-rays films. UV-irradiated Jurkat cells were used as a positive control in Western blot analysis of c-PARP1. After 2 h, one-minute UV-irradiated Jurkat leukemic T-cell line was lysed and subjected to analysis.
For densitometry, immunoblots were quantified using the Fiji distribution of the ImageJ 1.52a software (National Institutes of Health, Bethesda, MD, USA, and the University of Wisconsin, Madison, WI, USA). Phosphorylated protein densities were normalized to GAPDH densities, assuming 1 for untreated cells and then they were converted to a percent of the appropriate control.
On the technique in general: A western blot detects proteins with antibodies after separation by electrophoresis.

Assay [2] has as its system MCF-7 cells. In words: Cell cycle progression by flow cytometry, MCF-7. The note with it: MCF-7, 72 h, compound at its EC50. Format: cell-based, human. Background: In flow cytometry, cells or beads pass a laser one at a time.
The subject of assay [3] is MCF-7 cells. Kind of assay: Cleaved PARP1 Western blot, MCF-7. The class given is cell-based, human. The note with it: MCF-7, 72 h treatment, compound at its EC50. The method, then:
In order to evaluate the proapoptotic properties of the newly synthesized derivatives, we analyzed the level of cleaved PARP1 [c-PARP1, nuclear poly (ADP-ribose) polymerase 1], the hallmark of apoptotic cells.
Considering the lack of significant effect of the tested compounds in MCF-7 cells after 24-h treatment, we additionally evaluated c-PARP1 level in this cell line after 72 h of treatment. […] It should be noted that the highest level of c-PARP up to almost 20-fold higher than in the control was detected in the cell culture treated with a derivative 6b.
The MCF-7 cells growing exponentially were seeded at 4.8 × 10^5 cells in 6-cm-diameter plates. Subsequently, compounds were added in a final concentration of 0.5% DMSO. […] The protein concentration was determined using Bradford assay. […] Equal amounts of total protein (10 to 20 μg) were analyzed by SDS-PAGE, and subsequently, Western blotting was performed using primary antibodies in blocking buffer containing either 3% BSA (bovine serum albumin) or 3% milk in TBS-T (Tris-buffered saline (10 mM Tris-HCl (pH 8), 150 mM NaCl) containing 0.1% Tween 20 or 0.2% Triton X-100) for 1 h. […]
For densitometry, immunoblots were quantified using the Fiji distribution of the ImageJ 1.52a software (National Institutes of Health, Bethesda, MD, USA, and the University of Wisconsin, Madison, WI, USA). […]

For another assay, the system named is MDA-MB-231 cells. Kind of assay: Annexin V-FITC/PI flow cytometry, MDA-MB-231. The class given is cell-based, human. The note with it: compound at its EC50. The method, then:
Similar to the results obtained for MCF-7 cells, compound 6b acted in MDA-MB-231 cells as an effective inducer of apoptosis with the amount of apoptotic cells equal to 31.5% and 49% after 24 h and 72 h of treatment, respectively.
MCF-7 cells were seeded in six-well plates at 1.5 × 10^5 cells/well. […] Then, the plates were incubated for 24 h or 72 h. After exposure to the examined compounds, the floating cells were collected, and monolayer cell culture was trypsinized. The cells were centrifugated at 200× g at 4 °C for 5 min, washed twice in cold phosphate-buffered saline (PBS), and subsequently suspended in binding buffer at 1 × 10^6 cells/mL. Subsequently, 100-μL aliquots of the cell suspension were labeled according to the kit manufacturer’s instructions. Briefly, annexin V-fluorescein isothiocyanate and propidium iodide (BD Biosciences, Pharmingen, San Diego, CA, USA) were added to the cell suspension, and the mixture was vortexed and then incubated for 15 min at RT in the dark. A cold binding buffer (900 μL) was then added and the cells were vortexed again and kept on ice. Flow cytometric measurements were performed within 1 h after labeling. Viable, necrotic, early, and late apoptotic cells were detected by flow cytometry using CyFlow Cube 8 (Sysmex, Norderstedt, Germany) flow cytometer.

For assay [4], the target named is CK2 holoenzyme (CK2 α2β2) (Homo sapiens, UniProt P68400). Kind of assay: Radiometric (P81 filter isotopic) kinase assay, CK2 holoenzyme. Format: biochemical. To be noted: read-out: Residual Activity of the Enzyme CK2 α2β2; for remaining activity at 5 µM: 5 µM compound; for remaining activity at 10 µM: 10 µM compound.
Sequence of CK2 holoenzyme (CK2 α2β2) (P68400 whole entry): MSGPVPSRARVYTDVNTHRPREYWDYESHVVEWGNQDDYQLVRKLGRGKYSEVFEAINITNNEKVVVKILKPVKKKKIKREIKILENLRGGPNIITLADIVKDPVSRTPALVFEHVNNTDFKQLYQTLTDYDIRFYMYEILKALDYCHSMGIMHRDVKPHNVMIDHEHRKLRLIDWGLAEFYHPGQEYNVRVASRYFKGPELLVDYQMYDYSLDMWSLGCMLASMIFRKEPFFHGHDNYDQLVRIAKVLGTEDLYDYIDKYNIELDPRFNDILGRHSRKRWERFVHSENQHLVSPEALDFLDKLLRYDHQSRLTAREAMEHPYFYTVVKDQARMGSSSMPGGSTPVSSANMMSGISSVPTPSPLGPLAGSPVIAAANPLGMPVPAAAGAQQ
Sequence of CK2 holoenzyme (CK2 α2β2) (P67870 whole entry partner): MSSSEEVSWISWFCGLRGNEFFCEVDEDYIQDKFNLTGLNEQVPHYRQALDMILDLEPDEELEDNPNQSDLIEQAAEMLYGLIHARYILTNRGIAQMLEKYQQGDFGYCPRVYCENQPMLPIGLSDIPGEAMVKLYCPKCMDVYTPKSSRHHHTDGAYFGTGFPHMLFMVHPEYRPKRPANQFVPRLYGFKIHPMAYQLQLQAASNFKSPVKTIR
For assay [5], the target named is human CK2 catalytic subunit (CK2α) (Homo sapiens, UniProt P68400). Kind of assay: Radiometric (P81 filter isotopic) kinase assay, CK2 catalytic subunit. The class given is biochemical. The note with it: read-out: Residual Activity of the Enzyme CK2α; for remaining activity at 5 µM: 5 µM compound; for remaining activity at 10 µM: 10 µM compound.
Sequence of human CK2 catalytic subunit (CK2α) (P68400 whole entry): as the sequence (P68400 whole entry) above
The mark [6] stands for this setting: MCF-7, 72 h treatment, compound at its EC50, relative to untreated control.

SMILES strings stand for the structures.

Sequence of PIM1 (P11309 whole entry, species assumed): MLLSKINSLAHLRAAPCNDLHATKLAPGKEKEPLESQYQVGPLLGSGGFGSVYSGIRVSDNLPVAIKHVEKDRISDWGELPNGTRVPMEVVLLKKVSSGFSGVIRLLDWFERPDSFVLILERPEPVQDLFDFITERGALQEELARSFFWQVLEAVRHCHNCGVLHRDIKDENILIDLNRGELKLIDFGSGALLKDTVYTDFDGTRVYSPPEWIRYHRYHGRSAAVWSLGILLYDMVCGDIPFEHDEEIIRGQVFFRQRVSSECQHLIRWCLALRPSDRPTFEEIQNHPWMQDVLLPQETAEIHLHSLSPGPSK

`CCCCCC(=O)OCCCn1c(C)nc2c(Br)c(Br)c(Br)c(Br)c21` [Compound 6b, (4,5,6,7-Tetrabromo-2-methyl-1H-benzimidazol-1-yl)propyl hexanoate]: on PIM1, the remaining activity at 5 µM turned out to be 62.4 ± 8.3% and the remaining activity at 10 µM came to 46.4 ± 2.7%. The “relative level of p-Ser529 p65” value in assay [1] (MCF-7, 24 h treatment, compound at its 72-h EC50, relative to untreated control) is on record as 0.33. In the assay on MCF-7 cells [2], the “cells in G1” value was found to be 50.1%, the “cells in G2M” value is 19.9% and the “cells in S” value stood at 30.0%. In the assay with MCF-7 cells [3], the “level of c-PARP1 relative to control” value is on record as roughly 20 fold. This compound also yielded an apoptotic cells with MDA-MB-231 cells (MDA-MB-231, 24 h treatment) of 31.5%. In the assay on MDA-MB-231 cells (MDA-MB-231, 72 h treatment), this compound returned an apoptotic cells of 49%. Also, in assay [4], the remaining activity at 5 µM amounted to 85.4 ± 0.6% and the remaining activity at 10 µM is 71.4 ± 0.2%. Moreover, in assay [5], the remaining activity at 5 µM is 76.8 ± 1.9% and the remaining activity at 10 µM amounted to 74.3 ± 0.1%.
Take `CCCCCCCC(=O)OCCCn1cnc2c(Br)c(Br)c(Br)c(Br)c21` [Compound 3c, 3-(4,5,6,7-Tetrabromo-1H-benzimidazol-1-yl)propyl octanoate]: at PIM1, the remaining activity at 5 µM came out at 99.1 ± 15.7% and the remaining activity at 10 µM came out at 95.4 ± 4%. Moreover, in assay [1] (setting [6]), the “relative level of p-Ser129 Akt1” value was determined as 0.19 and the “relative level of p-Ser529 p65” value was 0.17. Also, in the assay with MCF-7 cells [2], the “cells in G1” value is listed as 59.4%, the “cells in G2M” value is 11.0% and the “cells in S” value worked out at 29.6%. For the same compound, the “level of c-PARP1 relative to control” value with MCF-7 cells [3] is “significant increase”. Besides, the apoptotic cells with MDA-MB-231 cells (MDA-MB-231, 24 h treatment) is recorded as 32.5%. This compound also returned an apoptotic cells in the assay on MDA-MB-231 cells (MDA-MB-231, 72 h treatment) of 50.5%. For the same compound, in assay [4], the remaining activity at 5 µM turned out to be 95.3 ± 2.9% and the remaining activity at 10 µM stood at 92.7 ± 3.5%. In assay [5], the remaining activity at 5 µM amounted to 86.1 ± 4.2% and the remaining activity at 10 µM is 79.2 ± 7.6%.
